Several values for one entry are separate records, joined by “and”; a condition that tells them apart may be missing. Equal entries are not always repeated. Where two headings read alike, the source gives them in different places.
Experiments:
5-HT1A receptors = settings: ref Wooten et al., cited from earlier work
rabbits [1] = assay: 14-Day Toxicity Study of FCWAY, intravenous; format: in vivo; settings: from rabbit 0.3 mg/kg/day
rabbits [2] = settings: intravenous, 14 consecutive days, ref PDSP data base; cited from earlier work
[3] = tested on: serotonin release in the rat frontal cortex; settings: ref Mukaida et al., 2007; cited from earlier work
[4] = tested on: hippocampal extracellular serotonin levels; settings: mice; ref Whittington and Virag, 2006; cited from earlier work
human P-glycoprotein = settings: cited from earlier work
human = settings: ref PDSP data base; cited from earlier work
[5] = humans, baseline and with disulfiram; ref Ryu et al., 2007; cited from earlier work
[6] = humans, with disulfiram; ref Ryu et al., 2007; cited from earlier work
[7] = rat, in vivo; cited from earlier work

Compound: COc1ccccc1N1CCN(CCN(C(=O)C2CCC(CF)CC2)c2ccccn2)CC1 (single isomer, unassigned) [cis-isomer of Mefway]
- Binding compared to trans-isomer (5-HT1A receptors; 2011a): lower binding

Compound: COc1ccccc1N1CCN(CCN(C(=O)C2CCCC(CF)C2)c2ccccn2)CC1 (stereo not drawn) [3-Mefway analog]
- In vivo binding properties compared to 4-Mefway (5-HT1A receptors; 2014): lower in vivo binding properties

Compound: COc1ccccc1N1CCN(CCN(C(=O)C2CCC(F)CC2)c2ccccn2)CC1 (stereo not drawn) [FCWAY]
- Human equivalent dose (HED) of the no-effect level (rabbits [1]): 97 µg/kg
- No-effect level (rabbits [2]): 0.3 mg/kg body weight/day

Compound: FC(F)OC(Cl)C(F)(F)F (stereo not drawn) [Isoflurane]
- Serotonin release, frontal cortex [3]: < 40 % of awake state
- Hippocampal extracellular serotonin levels [4]: < 40 % of baseline

Compound: COc1ccccc1N1CCN(CCN(C(=O)c2ccc(F)cc2)c2ccccn2)CC1 [MPPF]
- Substrate of human P-glycoprotein (human P-glycoprotein): not being suitable substrates

Compound: COc1ccccc1N1CCN(CCN(C(=O)C2CCCCC2)c2ccccn2)CC1 [WAY-100635, N-{2-[4-(2-methoxyphenyl)piperazin-1-yl]ethyl}-N-(pyridine-2-yl)cyclohexanecarboxamide]
- Daily dose safely used in human (human): up to 700 μg/kg
- Substrate of human P-glycoprotein (human P-glycoprotein; ref Tournier et al., 2011): not being suitable substrates

Compound: COc1ccccc1N1CCN(CCN(C(=O)C2CCC([18F])CC2)c2ccccn2)CC1 (stereo not drawn) [^18F-FCWAY]
- Plasma free fraction [5]: 13% and ~ 13%
- Decrease of plasma clearance compared to baseline [6]: 47%

Compound: O=C(O)[C@H]1CC[C@H](C[18F])CC1 [^18F-FMCHA]
- Brain penetration and retention [7]: poor penetration and retention

Reference: publication PMC4783179 (The Journal of comparative neurology, 2015)
